Drawing on patent US10793563B2, “GCN2 inhibitors and uses thereof” (Merck Patent GmbH, priority 2018, dated 2020), this text covers IC50 and EC50 for 6 compounds.

For assay [1], the target named is GCN2 kinase (Homo sapiens (Human), UniProt Q9P2K8). The assay can be described thus: GCN2 Enzyme Inhibition Assay (Transcreener ADP2 fluorescence polarization). Format: biochemical. As to conditions: 280 μM ATP, 200 μM (RS)7 peptide, 4 nM GCN2, 25° C. An outline of the steps:
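At 25 °C, GCN2 kinase (typical final concentration 4 nM) and (RS)7 peptide in Tris-HCl pH 7.5 buffer with MgCl2, NaCl and DTT were preincubated with compound for 10 min, then ATP was added for a 1 h reaction. ADP was read by FP with antibody/Alexa633 tracer. Non-linear tight-binding analysis gave IC50 and apparent Ki.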

Assay [2] addresses intracellular GCN2 (phosphorylation of the GCN2 substrate eIF2α) (Homo sapiens (Human), UniProt Q9P2K8). Description: GCN2 Cellular Inhibition Assay (AlphaScreen SureFire P-eIF2α Ser51, borrelidin-treated U2OS cells). Type of assay: cell-based. As to conditions: 10 μM borrelidin, 1 h, phosphorylated eIF2α Ser51, read-out: GCN2 Biomarker (IC50). The essentials:
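Phospho-eIF2α (Ser51) measured by AlphaScreen SureFire in lysates of U2OS cells stimulated 1 h at 37 °C with 10 μM borrelidin alongside compound, 4-fold dilutions from 40 μM. Inhibition expressed as percent relative to borrelidin-alone controls.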

In assay [3] the test system is primary human pan T-cells. The assay can be described thus: Human IL-2 Assay for GCN2 Inhibition (IL-2 secretion from T cells in low amino acid condition). Type of assay: cell-based. The following applies: Homo sapiens, T-cell, 96 h, IL-2 secretion from human T cells stimulated with anti-CD3/CD28 in low amino acid condition, ELISA, read-out: IL2/T-cell EC50. The essentials:
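Pan T-cells (5×10^4/well) in RPMI lacking one amino acid (e.g. Trp, Arg) with 10% charcoal-stripped FBS; that amino acid titrated from none to 20 μM Trp or 950 μM Arg. Compound given 30 min at 37 °C before anti-CD3/CD28 bead stimulation; supernatant IL-2 by ELISA after 96 h; EC50 calculated.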

A value given as a limit tells only on which side of the number the result lay.

Sequence of GCN2 kinase (Q9P2K8 whole entry): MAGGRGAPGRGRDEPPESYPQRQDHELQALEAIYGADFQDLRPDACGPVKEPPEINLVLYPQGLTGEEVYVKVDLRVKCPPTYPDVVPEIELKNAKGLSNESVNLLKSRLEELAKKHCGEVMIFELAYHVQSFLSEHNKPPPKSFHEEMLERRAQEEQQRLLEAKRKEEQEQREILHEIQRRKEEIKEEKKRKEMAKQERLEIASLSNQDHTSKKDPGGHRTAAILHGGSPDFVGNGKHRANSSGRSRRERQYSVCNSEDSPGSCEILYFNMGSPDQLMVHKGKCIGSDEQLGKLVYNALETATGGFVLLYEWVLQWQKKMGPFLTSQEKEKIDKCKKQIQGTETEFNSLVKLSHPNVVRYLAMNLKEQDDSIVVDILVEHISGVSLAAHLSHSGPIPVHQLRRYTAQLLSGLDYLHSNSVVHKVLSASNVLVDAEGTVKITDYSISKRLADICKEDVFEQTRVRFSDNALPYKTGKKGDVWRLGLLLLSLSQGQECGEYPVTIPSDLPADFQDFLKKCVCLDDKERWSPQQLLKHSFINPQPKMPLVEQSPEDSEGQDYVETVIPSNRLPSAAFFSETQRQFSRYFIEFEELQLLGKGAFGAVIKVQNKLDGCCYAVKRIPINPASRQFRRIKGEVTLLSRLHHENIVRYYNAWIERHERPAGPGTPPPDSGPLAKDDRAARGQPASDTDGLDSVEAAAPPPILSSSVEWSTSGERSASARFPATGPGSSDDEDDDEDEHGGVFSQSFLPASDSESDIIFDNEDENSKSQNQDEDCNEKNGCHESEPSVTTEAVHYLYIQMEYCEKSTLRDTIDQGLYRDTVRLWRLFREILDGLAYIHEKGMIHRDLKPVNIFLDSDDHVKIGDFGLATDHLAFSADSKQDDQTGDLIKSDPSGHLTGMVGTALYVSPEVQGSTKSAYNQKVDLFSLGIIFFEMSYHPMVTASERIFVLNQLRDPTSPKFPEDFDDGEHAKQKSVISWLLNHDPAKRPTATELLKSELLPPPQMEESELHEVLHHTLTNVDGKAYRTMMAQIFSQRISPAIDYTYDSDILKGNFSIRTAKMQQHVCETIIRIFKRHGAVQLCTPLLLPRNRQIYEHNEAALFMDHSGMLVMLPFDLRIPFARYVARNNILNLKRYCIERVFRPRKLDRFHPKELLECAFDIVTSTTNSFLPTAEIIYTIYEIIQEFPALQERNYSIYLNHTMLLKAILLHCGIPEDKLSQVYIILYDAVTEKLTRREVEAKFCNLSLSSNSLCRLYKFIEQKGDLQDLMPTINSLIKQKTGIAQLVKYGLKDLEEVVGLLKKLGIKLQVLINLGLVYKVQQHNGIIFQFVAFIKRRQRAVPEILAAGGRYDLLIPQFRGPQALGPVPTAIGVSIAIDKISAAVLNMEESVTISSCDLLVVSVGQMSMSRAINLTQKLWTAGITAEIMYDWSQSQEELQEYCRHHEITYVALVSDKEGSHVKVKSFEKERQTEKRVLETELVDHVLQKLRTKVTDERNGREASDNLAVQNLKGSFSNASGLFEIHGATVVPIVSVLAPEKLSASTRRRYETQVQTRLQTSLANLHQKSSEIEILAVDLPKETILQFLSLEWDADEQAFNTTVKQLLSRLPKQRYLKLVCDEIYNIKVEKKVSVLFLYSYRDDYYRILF
Sequence of intracellular GCN2 (phosphorylation of the GCN2 substrate eIF2α) (Q9P2K8 whole entry): as above

By IC50 is commonly meant the concentration that gives 50% inhibition. With `Cc1n[nH]nc1[C@@H]1C[C@H](C)CN(c2ccnc(-c3cnc4ccc(C(F)(F)F)cn34)n2)C1` [I-409, 3-(4-((3S,5R)-3-methyl-5-(5-methyl-2H-1,2,3-triazol-4-yl)piperidin-1-yl)pyrimidin-2-yl)-6-(trifluoromethyl)imidazo[1,2-a]pyridine], the IC50 in assay [1] was 10 to 100 nM; in assay [2], less than 500 nM. The EC50 in assay [3] is more than 500 nM.
The matching figures for `CC1CC1CN1CCN(c2ccnc(-c3cnc4ccc(C(F)(F)F)cn34)n2)CC1c1cn[nH]c1` (stereo not drawn) [I-473, 3-(4-(4-((2-methylcyclopropyl)methyl)-3-(1H-pyrazol-4-yl)piperazin-1-yl)pyrimidin-2-yl)-6-(trifluoromethyl)imidazo[1,2-a]pyridine]: less than 10 nM, less than 500 nM and 100 to 500 nM.
On the same counts, the results for `C[C@H]1[C@@H](c2cn[nH]c2)N(CC2(C)COC2)CCN1c1ccnc(-c2cnc3ccc(C(F)(F)F)cn23)n1` [I-481, 3-(4-((2 S,3R)-2-methyl-4-((3-methyloxetan-3-yl)methyl)-3-(1H-pyrazol-4-yl)piperazin-1-yl)pyrimidin-2-yl)-6-(trifluoromethyl)imidazo[1,2-a]pyridine] are less than 10 nM, less than 500 nM and less than 100 nM.
For `CS(=O)(=O)C1CC(N2CCN(c3ccnc(-c4cnc5ccc(C(F)(F)F)cn45)n3)C[C@@H]2c2cn[nH]c2)C1` (stereo partly drawn) [I-495, 3-{4-[(S)-4-(3-Methanesulfonyl-cyclobutyl)-3-(1H-pyrazol-4-yl)-piperazin-1-yl]-pyrimidin-2-yl}-6-trifluoromethyl-imidazo[1,2-a]pyridine], the IC50 in assay [1] is less than 10 nM; in assay [2], less than 500 nM. The EC50 in assay [3] is more than 500 nM.
The matching figures for `C[C@@H]1C[C@H](N=S(C)(C)=O)CN(c2nccc(-c3cnc4ccc(C(F)F)cn34)n2)C1` [I-499, (((3 S,5R)-1-(4-(6-(difluoromethyl)imidazo[1,2-a]pyridin-3-yl)pyrimidin-2-yl)-5-methylpiperidin-3-yl)imino)dimethyl-λ6-sulfanone]: less than 10 nM, less than 500 nM and more than 500 nM.
The matching figures for `FC(F)(F)c1ccc2ncc(-c3nccc(N4CCN(C5CC6(COC6)C5)[C@H](c5cn[nH]c5)C4)n3)n2c1` [I-504, (R)-3-(4-(3-(1H-pyrazol-4-yl)-4-(2-oxaspiro[3.3]heptan-6-yl)piperazin-1-yl)pyrimidin-2-yl)-6-(trifluoromethyl)imidazo[1,2-a]pyridine]: less than 10 nM, less than 500 nM and 100 to 500 nM.
